Measured values: article PMC11784839, “Monoaminergic neurotransmitters are bimodal effectors of tau aggregation” (Science Advances, 2025)

Target: tau (Homo sapiens, UniProt P10636)
Experiment: MCE Phenols Library screening, tau biosensor cell seeding assay (AvZ)
Assay type: cell-based
Conditions: for Z repl 1 / Z Repl 2: Z score; for Z repl 1 / raw data 1: replicate 1; for Z Repl 2 / raw data 2: replicate 2; for AvZ (average z score of seeding, SDs from the mean level of seeding): 10 μM phenol in cell cultures, AD brain homogenate preincubated 16 hours, two biological replicates, positive = catalyzes seeding, negative = inhibits
[1] = average Z score of the two replicates, MCE Phenols Library screen
[2] = average puncta of the two replicates
[3] = average Z score of the two replicates, tau seeding
[4] = average Z score of two replicates, Phenols Library screen
[5] = average Z score of the two replicates, tau biosensor seeding, MCE Phenols Library screen

tau, sequence (P10636 623-695 limits assumed): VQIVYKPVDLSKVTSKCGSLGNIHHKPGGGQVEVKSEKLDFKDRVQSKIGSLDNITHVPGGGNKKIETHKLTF

Compound | Z repl 1 | Z Repl 2 | av Z [1] | av puncta [2] | raw data 1 (puncta) | raw data 2 (puncta) | av Z [3] | av puncta (average of raw data 1 and 2) | raw data 1 (raw puncta) | raw data 2 (raw puncta) | AvZ (average z score of seeding, SDs from the mean level of seeding) | av Z [4] | av Z [5]
O=C(/C=C/c1ccc(O)c(O)c1)O[C@@H]1C[C@@](O)(C(=O)O)C[C@@H](O)[C@@H]1O [Neochlorogenic acid] | -0.752 | -0.408 | -0.58 | 12870.1 | 17326.7 | 8413.44 | – | – | – | – | – | – | –
CC(C)=CCc1c(O)ccc(C(=O)[C@@H]2[C@@H](c3c(O)cc(O)c4c(=O)c(CC=C(C)C)c(-c5ccc(O)cc5O)oc34)C=C(C)C[C@H]2c2ccc(O)cc2O)c1O [Kuwanon H] | -0.22 | 0.532 | – | – | 23703 | 18451.1 | 0.156 | 21077.1 | – | – | – | – | –
CC(C)=CCc1cc2c(cc1O)O[C@H](c1ccc(O)cc1)CC2=O [Bavachin] | -0.343 | -0.767 | -0.555 | 13401.9 | 22229.8 | 4573.9 | – | – | – | – | – | – | –
OC[C@H]1O[C@@H](Oc2cc(/C=C/c3cc(O)cc(O)c3)ccc2O)[C@H](O)[C@@H](O)[C@@H]1O [Piceatannol 3'-O-glucoside] | 0.407 | 0.408 | – | – | 31229.6 | 17127.3 | 0.407 | 24178.5 | – | – | – | – | –
COc1ccc(-c2cc(=O)c3c(O)c(OC)c(O)cc3o2)cc1OC [Eupatilin] | 0.583 | 0.288 | – | – | 33348.4 | 15845.8 | 0.436 | 24597.1 | – | – | – | – | –
Cc1cc(O)c(C)c2c1O[C@](C)(CCC[C@H](C)CCC[C@H](C)CCCC(C)C)CC2 [?-Tocopherol] | 0.056 | -0.786 | -0.365 | 15701 | – | – | – | – | 27026 | 4376.13 | – | – | –
COc1cc(/C=C/C(=O)OCC[N+](C)(C)C)cc(OC)c1O.N#C[S-] [Sinapine (thiocyanate)] | 0.104 | -0.095 | – | – | 27602.3 | 11751.4 | – | 19676.8 | – | – | 0.005 | – | –
O=C(/C=C/c1ccc(O)c(O)c1)N[C@@H](Cc1ccc(O)c(O)c1)C(=O)O [Clovamide] | -0.17 | -1.084 | -0.627 | 12750.8 | 24311.1 | 1190.55 | – | – | – | – | – | – | –
CC(C)(c1ccc(O)cc1)c1ccc(O)cc1 [Bisphenol A] | 0.124 | 0.085 | – | – | 27836.8 | 13670.7 | – | 20753.8 | – | – | – | 0.104 | –
CC=C1[C@H](O[C@@H]2O[C@H](CO)[C@@H](O)[C@H](O)[C@H]2O)OC=C(C(=O)OC)[C@H]1CC(=O)OC[C@H]1O[C@@H](OCCc2ccc(O)cc2)[C@H](O)[C@@H](O)[C@@H]1O (stereo in doubt) [Specneuzhenide] | -0.904 | 0.064 | -0.42 | 14474.2 | – | – | – | – | 15493.9 | 13454.5 | – | – | –
CC(C(=O)c1ccc(O)cc1O)c1ccc(O)cc1 (centres unmarked) [O-Desmethylangolensin] | 0.135 | -0.221 | – | – | 27969 | 10409.2 | – | 19189.1 | – | – | – | -0.043 | –
CC(=O)c1ccc(C)cc1O [2'-Hydroxy-4'-methylacetophenone] | 0.483 | -0.487 | – | – | 32144.5 | 7565.33 | – | 19854.9 | – | – | -0.002 | – | –
Cl.NCC(O)c1ccc(O)c(O)c1 (racemic) [DL-Norepinephrine (hydrochloride)] | – | – | – | – | 29267.2 | 15422.3 | – | 22344.8 | – | – | – | – | –
O=C(O)c1cccc(O)c1 [3-Hydroxybenzoic acid] | -0.749 | -0.88 | – | – | 17360.5 | 3370.33 | – | 10365.4 | – | – | -0.814 | – | –
COc1ccc(C=O)cc1O [Isovanillin] | -0.326 | -0.711 | – | 13803.3 | 22438.6 | 5167.88 | – | – | – | – | -0.519 | – | –
Cc1cc(=O)oc2cc(O)c(O)cc12 [4-Methylesculetin] | 0.302 | -0.022 | – | – | 29975.4 | 12529 | 0.14 | 21252.2 | – | – | – | – | –
Oc1cc(O)c2cc(O)c(-c3cc(O)c(O)c(O)c3)[o+]c2c1.[Cl-] [Delphinidin (chloride)] | – | -0.674 | -1.417 | – | 426.071 | 5569.91 | – | 2997.99 | – | – | – | – | –

Compound | Z repl 1 | Z Repl 2 | av Z [1] | av puncta [2] | raw data 1 (puncta) | raw data 2 (puncta) | av Z [3] | av puncta (average of raw data 1 and 2) | raw data 1 (raw puncta) | raw data 2 (raw puncta) | AvZ (average z score of seeding, SDs from the mean level of seeding) | av Z [4] | av Z [5]
COc1cc(O)c(C(=O)/C=C/c2ccc(O)cc2)cc1CC=C(C)C [4'-O-Methylbavachalcone] | -0.312 | 0.23 | – | – | 22607.8 | 15222.5 | – | 18915.2 | – | – | – | -0.041 | –
COc1cc(/C=C/C(=O)OC(C)C)ccc1O [Isopropyl ferulate] | 0.168 | -0.833 | – | 16119 | – | – | – | – | 28366.5 | 3871.42 | -0.332 | – | –
O=C(O)[C@H]1O[C@@H](Oc2c(-c3ccc(O)cc3)oc3cc(O)cc(O)c3c2=O)[C@H](O)[C@@H](O)[C@@H]1O [Kaempferol 3-O-?-D-glucuronide] | 0.499 | 0.597 | – | – | 32345.4 | 19144.3 | 0.548 | 25744.8 | – | – | – | – | –
Neosmitilbin | 0.198 | -0.157 | – | – | 28721.6 | 11093.4 | – | 19907.5 | – | – | – | 0.021 | –
COC(=O)[C@@H](Cc1ccc(O)c(O)c1)OC(=O)/C=C/c1ccc(O)c(O)c1 [Methyl rosmarinate] | -0.241 | -0.521 | -0.381 | 15329.6 | – | – | – | – | 23459.6 | 7199.56 | – | – | –
COC(=O)/C=C/c1ccc(O)cc1 [(E)-Methyl 4-coumarate] | 0.336 | -0.209 | – | – | 30381.4 | 10536.7 | – | 20459.1 | – | – | 0.064 | – | –
O=c1cc(-c2ccc(O)cc2)oc2c([C@@H]3O[C@H](CO)[C@@H](O[C@@H]4O[C@H](CO)[C@@H](O)[C@H](O)[C@H]4O)[C@H](O)[C@H]3O)c(O)cc(O)c12 [Vitexin-4''-O-glucoside] | 0.632 | -0.232 | – | – | 33940.8 | 10285.2 | 0.2 | 22113 | – | – | – | – | –
COc1c(O)cc2occ(-c3ccc(O)cc3)c(=O)c2c1O [Tectorigenin] | -0.071 | -0.055 | – | – | 25501.8 | 12177 | – | 18839.4 | – | – | – | -0.063 | –
Oc1cc(O)cc(-c2cc3ccc(O)cc3o2)c1 [Moracin M] | 0.06 | -0.745 | -0.343 | 15938.9 | – | – | – | – | 27063.9 | 4813.92 | – | – | –
C[C@@H]1O[C@@H](Oc2cc(O)c3c(=O)c(O)c(-c4ccc(O)c(O)c4)oc3c2)[C@H](O)[C@H](O)[C@H]1O [Vincetoxicoside B] | -0.893 | -0.479 | -0.686 | 11642.8 | 15632.1 | 7653.58 | – | – | – | – | – | – | –
COc1c(O)cc2c(c1O)[C@@H]1O[C@H](CO)[C@@H](O)[C@H](O)[C@H]1OC2=O [Bergenin] | 0.275 | -0.537 | – | – | 29646.8 | 7026.42 | – | 18336.6 | – | – | – | -0.131 | –
COc1cc2ccc(=O)oc2c(O[C@@H]2O[C@H](CO)[C@@H](O)[C@H](O)[C@H]2O)c1O [Fraxin] | 0.183 | -0.668 | -0.243 | 17088 | – | – | – | – | 28547.2 | 5628.78 | – | – | –
O=c1c(O[C@@H]2O[C@H](CO)[C@@H](O)[C@H](O)[C@H]2O[C@@H]2O[C@H](CO)[C@@H](O)[C@H](O)[C@H]2O)c(-c2ccc(O)c(O)c2)oc2cc(O)cc(O)c12 [Baimaside] | 1.152 | 0.927 | – | – | 40179 | 22670.4 | – | 31424.7 | – | – | – | – | 1.04
CC(C)=CCc1c(O)cc2c(c1O)C(=O)C[C@@H](c1ccc(O)cc1)O2 [(2S)-6-Prenylnaringenin] | 0.006 | 0.268 | – | – | 26415.8 | 15632.3 | 0.137 | 21024 | – | – | – | – | –
COc1ccc(C(C)=O)c(O)c1 [Paeonol] | 0.101 | 0.444 | – | – | 27565 | 17503.1 | – | 22534.1 | – | – | 0.272 | – | –
OC[C@H]1O[C@@H](Oc2ccc(O)cc2)[C@H](O)[C@@H](O)[C@@H]1O [?-Arbutin] | 1.599 | 0.945 | – | – | 45542.6 | 22862.6 | – | 34202.6 | – | – | – | – | 1.272
